Measured values as given in patent US6451832B2, “Benzimidazoles with antithrombotic activity” (Boehringer Ingelheim Pharma KG, priority 1999, dated 2002).

Tests used:
[1] = Oral resorption of prodrugs
[2] = test system: human citrated plasma; assay: Prolongation of the aPTT time in human citrated plasma (Biomatic B10 coagulometer); format: biochemical; conditions: concentration at which the aPTT time is doubled compared with the control, 37° C.
Experimental: were investigated as follows for their effects on prolonging the aPTT time:
Materials: plasma, from human citrated blood. PTT reagent, Boehringer Mannheim (524298), Calcium solution (0.025 mol/l), Behring Werke, Marburg (ORH 056/57), Diethylbarbiturate acetate buffer, Behring Werke, Marburg (ORWH 60/61), Biomatic B10 coagulometer, Desaga, Wiesloch.
The aPTT time was determined using a Biomatic B10 coagulometer made by Messrs. Desaga.
The test substance was placed in the test tubes prescribed by the manufacturer together with 0.1 ml of human citrated plasma and 0.1 ml of PTT reagent. The mixture was incubated for three minutes at 37° C. The clotting reaction was started by the addition of 0.1 ml of calcium solution. The time is measured using the apparatus from the addition of the calcium solution up to the clotting of the mixture. Mixtures to which 0.1 ml of DBA buffer were added were used as the controls.
According to the definition, a dosage-activity curve was used to determine the effective concentration of the substance, i.e. the concentration at which the aPTT time is doubled compared with the control.

SMILES | oral resorption [1] | aPTT time (ED200 in μM) [2] [µM]
CCCCOC(=O)CN[C@@](C)(C(=O)N1CCCC1)c1ccc2c(c1)nc(CNc1ccc(C(=N)NC(=O)c3ccccc3)cc1)n2C [Example 2, (R)-2-[4-(N-phenylcarbonylamidino)-phenylaminomethyl]-1-methyl-5-[1-(n-butyloxycarbonylmethylamino)-1-(pyrrolidinocarbonyl)-ethyl]-benzimidazole] | good oral resorption | –
C[C@@H]1CCCN1C(=O)[C@](C)(NCC(=O)O)c1ccc2c(c1)nc(CNc1ccc(C(=N)N)cc1)n2C.Cl.Cl [B, (R)-2-(4-amidinophenylaminomethyl)-1-methyl-5-[1-(carboxymethylamino)-1-[(R,S)-2-methyl-pyrrolidinocarbonyl]-ethyl]-benzimidazole-dihydrochloride] | – | 0.12
CCCOC(=O)CN[C@@](C)(C(=O)N1CCCC1)c1ccc2c(c1)nc(CNc1ccc(C(=N)NC(=O)c3ccccc3)cc1)n2C [3(2), (R)-2-[4-(N-phenylcarbonylamidino)-phenylaminomethyl]-1-methyl-5-[1-(n-propyloxycarbonylmethylamino)-1-(pyrrolidinocarbonyl)-ethyl]-benzimidazole] | good oral resorption | –
Cl.Cl.Cn1c(CNc2ccc(C(=N)N)cc2)nc2cc(C(C)(NCC(=O)O)C(=O)N3CC=CC3)ccc21 (centres unmarked) [C, 2-(4-amidinophenylaminomethyl)-1-methyl-5-[1-(carboxymethylamino)-1-(2,5-dihydropyrrolocarbonyl)-ethyl]-benzimidazole-dihydrochloride] | – | 0.22
CCOC(=O)CNC(C)(C(=O)N1CC=CC1)c1ccc2c(c1)nc(CNc1ccc(C(=N)N)cc1)n2C.Cl.Cl (centres unmarked) [A, 2-(4-amidinophenylaminomethyl)-1-methyl-5-[1-(ethoxycarbonylmethylamino)-1-(2,5-dihydropyrrolocarbonyl)-ethyl]-benzimidazole-dihydrochloride] | – | 0.13
